Legend:
Type in all cases: in vivo
Lindernia pyxidaria [1] = experiment: Test Example 12: herbicidal effect test by treatment during growing period in paddy field; conditions: 120 g/10a; treatment seven days after sowing in flooded paddy pot; assessed 14 days after treatment
Summary of the method: (§1)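 Paddy soil + NPK 17:17:17, puddled; 30 seeds/species sown 0–1 cm; flooded ~3 cm, greenhouse. Day 7 post-sowing: EC diluted in water, applied dropwise into water, 120 g a.i./10 are. Day 14 post-treatment: dry weight vs untreated → % suppression; n=2.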

Monochoria vaginalis [2] = experiment: as above; conditions: 120 g/10a; treatment seven days after sowing in flooded paddy pot; assessed 14 days after treatment
Summary of the method: as §1

Scirpus juncoides [3] = experiment: as above; conditions: 120 g/10a; treatment seven days after sowing in flooded paddy pot; assessed 14 days after treatment
Summary of the method: as §1

Echinochloa crus-galli [4] = experiment: as above; conditions: 120 g/10a; treatment seven days after sowing in flooded paddy pot; assessed 14 days after treatment
Summary of the method: as §1

Echinochloa crus-galli [5] = experiment: Test Example 14: herbicidal effect test by foliage treatment in upland field; conditions: 7 days after sowing, 120 g/10a, 14 days after treatment
Summary of the method: (§2)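 Dose: 120 g a.i. per 10 are, sprayed in 100 L water per 10 are onto pots seven days post-sowing in alluvial soil. After 14 days, weed dry weight relative to untreated plots gave suppression rate (%); duplicate plots per concentration.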

Amaranthus viridis [6] = experiment: as above; conditions: 7 days after sowing, 120 g/10a, 14 days after treatment
Summary of the method: as §2

crabgrass [7] = experiment: as above; conditions: 7 days after sowing, 120 g/10a, 14 days after treatment
Summary of the method: as §2

Chenopodium album [8] = experiment: as above; conditions: 7 days after sowing, 120 g/10a, 14 days after treatment
Summary of the method: as §2

Echinochloa crus-galli [9] = experiment: Test Example 13: herbicidal effect test by soil treatment in upland field; conditions: 120 g/10a, 14 days after treatment
Summary of the method: (§3)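 Soil-applied emulsifiable concentrate at 120 g active ingredient per 10 are, sprayed one day after seeding into alluvial soil pots. Dry-weight-based suppression scored at 14 days; two replications.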

Amaranthus viridis [10] = experiment: as above; conditions: 120 g/10a, 14 days after treatment
Summary of the method: as §3

crabgrass [11] = experiment: as above; conditions: 120 g/10a, 14 days after treatment
Summary of the method: as §3

Chenopodium album [12] = experiment: as above; conditions: 120 g/10a, 14 days after treatment
Summary of the method: as §3

Lindernia pyxidaria [13] = experiment: Test Example 11: herbicidal effect test by soil treatment in paddy field; conditions: 120 g/10a active ingredient, 14 days after treatment
Summary of the method: (§4)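 Dry weight at day 14 relative to untreated controls gives the suppression rate; duplicate pots. Treatment: 120 g a.i./10 are into paddy water at sowing.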

Monochoria vaginalis [14] = experiment: as above; conditions: 120 g/10a active ingredient, 14 days after treatment
Summary of the method: as §4

Scirpus juncoides [15] = experiment: as above; conditions: 120 g/10a active ingredient, 14 days after treatment
Summary of the method: as §4

Echinochloa crus-galli [16] = experiment: as above; conditions: 120 g/10a active ingredient, 14 days after treatment
Summary of the method: as §4

Row | SMILES | Weed suppression rate (%) Lindemia pyxidaria (Lindernia pyxidaria [1]) [%] | Weed suppression rate (%) Monochoria vaginalis (Monochoria vaginalis [2]) [%] | Weed suppression rate (%) Scirpus juncoides (Scirpus juncoides [3]) [%] | Weed suppression rate (%) Echinochloa crus-galli (Echinochloa crus-galli [4]) [%] | herbicidal effect, Echinochloa crus-galli (Echinochloa crus-galli [5]) [%] | herbicidal effect, Amaranthus viridis (Amaranthus viridis [6]) [%] | herbicidal effect, Crabgrass (crabgrass [7]) [%] | herbicidal effect, Chenopodium album (Chenopodium album [8]) [%] | herbicidal effect, Echinochloa crus-galli (Echinochloa crus-galli [9]) [%] | herbicidal effect, Amaranthus viridis (Amaranthus viridis [10]) [%] | herbicidal effect, Crabgrass (crabgrass [11]) [%] | herbicidal effect, Chenopodium album (Chenopodium album [12]) [%] | Weed suppression rate (%) Lindemia pyxidaria (Lindernia pyxidaria [13]) [%] | Weed suppression rate (%) Monochoria vaginalis (Monochoria vaginalis [14]) [%] | Weed suppression rate (%) Scirpus juncoides (Scirpus juncoides [15]) [%] | Weed suppression rate (%) Echinochloa crus-galli (Echinochloa crus-galli [16]) [%]
1 | CCS(=O)(=O)n1ncn(C(=O)N(c2cccc(F)c2F)C(C)C)c1=O [Compound 11-1148] | 90 | 90 | 100 | 100 | 100 | 70 | 100 | 80 | 100 | 100 | 100 | 90 | 100 | 90 | 100 | 100
2 | CC(C)N(C(=O)n1cnn(S(=O)(=O)C2CC2)c1=O)c1cccc(F)c1F [Compound 11-189] | 80 | 100 | 100 | 100 | 100 | 60 | 100 | 80 | 100 | 100 | 100 | 90 | 100 | 90 | 90 | 100
3 | CCS(=O)(=O)n1ncn(C(=O)N(c2c(F)cc(F)cc2F)C(C)C)c1=O [Compound 11-1154] | 80 | 90 | 80 | 100 | 100 | 30 | 100 | 80 | 100 | 90 | 100 | 80 | 100 | 100 | 100 | 100
4 | CCc1ccc(S(=O)(=O)n2ncn(C(=O)N(c3ccc(F)cc3F)C(C)C)c2=O)cc1 [Compound 11-666] | 90 | 90 | 90 | 100 | 90 | 40 | 90 | 40 | 100 | 40 | 90 | 100 | 90 | 90 | 90 | 100
5 | CC(C)N(C(=O)n1cnn(S(=O)(=O)C2CC2)c1=O)c1ccc(F)cc1 [Compound 11-162] | 80 | 80 | 90 | 90 | 80 | 90 | 90 | 80 | 80 | 90 | 90 | 80 | 90 | 90 | 90 | 100
6 | CC(C)N(C(=O)n1cnn(S(=O)(=O)C(C)C)c1=O)c1c(F)cc(F)cc1F [Compound 11-63] | 80 | 100 | 100 | 100 | 100 | 60 | 100 | 70 | 100 | 90 | 100 | 90 | 100 | 100 | 100 | 100
7 | Cc1cc(C)c(S(=O)(=O)n2ncn(C(=O)N(c3ccccc3)C(C)C)c2=O)c(C)c1 [Compound 11-852] | 90 | 90 | 90 | 80 | 60 | 60 | 90 | 70 | 80 | 60 | 80 | 60 | 90 | 90 | 90 | 100
8 | CC(C)CN(C)S(=O)(=O)n1ncn(C(=O)N(c2ccc(F)cc2F)C(C)C)c1=O [Compound 11-1101] | 80 | 80 | 90 | 90 | 80 | 90 | 90 | 80 | 80 | 90 | 90 | 80 | 90 | 90 | 90 | 90
9 | CC(C)N(C(=O)n1cnn(S(=O)(=O)C(C)C)c1=O)c1ccc(F)c(F)c1F [Compound 11-62] | 80 | 100 | 100 | 100 | 100 | 100 | 100 | 90 | 70 | 100 | 70 | 60 | 100 | 90 | 100 | 100
10 | CC(C)N(C(=O)n1cnn(S(=O)(=O)N2CCCCC2)c1=O)c1ccc(F)cc1F [Compound 11-1102] | 70 | 80 | 90 | 100 | 80 | 90 | 90 | 80 | 100 | 90 | 100 | 100 | 100 | 90 | 90 | 100

— patent publication US11076595B2, “1-(n,n-disubstituted carbamoyl) 4-(substituted sulfonyl)triazolin-5-one derivative, 4-(n,n-disubstituted carbamoyl) 1-(substituted sulfonyl)triazolin-5-one derivative, and herbicide containing said derivative as active ingredient” (HOKKO CHEMICAL INDUSTRY CO., LTD., priority 2017, dated 2021)
